Assay: Human HepG2 cell viability assay in 384 well format
Format: toxicity, cell-based
Design: dose 125 nL, time 70.5 hour; concentration not given beside the values
Details: HepG2 cells, read-out: Inhibition

Row | Structure (SMILES) | cytotoxicity at 70.5 h [%]
1 | COc1c(C2CCCN2CC(=O)Nc2nc(C)cs2)c(C)nn1C (stereo unspecified) | 3.79
2 | Cc1occc1C(=O)N1CCO[C@H]2[C@@H](Oc3ccccn3)CC[C@@H]21 | 4.46
3 | CC1CCCN(C(=O)c2ccc(-c3ccco3)o2)C1 (stereo unspecified) | -22.7
4 | CC(=O)c1cccc(NC(=O)CN2CCCC(C3OCCO3)C2)c1 (stereo unspecified) | -7.07
5 | CN(C)C(=O)c1cccnc1-c1ccc2c(c1)OCO2 | -11.3
6 | COCCN(Cc1ccoc1)S(=O)(=O)c1ccc(OC)c(Cl)c1 | -20.8
7 | O=C(NCCNC(=O)c1scnc1Cl)c1ccoc1 | 5.67
8 | COc1ccc(CN(C)[C@@H]2CN(C(=O)c3cnn(C)c3)C[C@H]2O)cc1 | -6.51
9 | O=C(Nc1cccnc1)[C@H]1CO[C@H]2CCNC[C@H]2C1 | 0.847
10 | COCCCn1ccc(NCc2ccc(NC(C)=O)cc2)n1 | -6.7
11 | O=C(Nc1cnn(-c2ccccc2Cl)c1)N[C@@H]1C=C[C@H](CO)C1 | -5.42
12 | CC1=CC(C)(C)N(CN2C(=O)c3ccccc3C2=O)c2ccc(C)cc21 | 7.06
13 | COc1ccc(N2CCN(C(=O)Cn3nc(C)c(C)c3C)C(C)C2)cc1 (stereo unspecified) | 6.36
14 | CC(C)c1noc(C(C)N2CCN(CCN3CCCC3=O)CC2)n1 (stereo unspecified) | -11.8
15 | O=C(c1ccc[nH]1)N1CCN(Cc2ccncc2)c2ncccc2C1 | -11.6
16 | CCOCCn1c(=O)[nH]c2cc(C(=O)N(C)CCc3cn[nH]c3)ccc21 | 18.1
17 | Cn1cc(-c2c(C#N)c(N)nc3c2CCc2[nH]ccc2-3)cn1 | 17.1
18 | COCCOc1ccc(NC(=O)N2CCCC2c2cccs2)cn1 (stereo unspecified) | -4.81
19 | Cc1nn(CCO)cc1CN1CCCC1c1nc2c(C)cccc2[nH]1 (stereo unspecified) | -2.76
20 | O=C(NC1CC1)C1CCc2nnc(C3CC3)n21 (stereo unspecified) | -10.1
21 | COc1c(C)cnc(CNC(=O)CCOCC(C)C)c1C | -4.31
22 | COc1cc(C2(C(=O)NCCn3ccnc3)CCCC2)ccc1C | -6.48
23 | COCC1CN(Cc2ccc(C)o2)Cc2nnn(CC3CC3)c21 (stereo unspecified) | -5.7

Row | Structure (SMILES) | cytotoxicity at 70.5 h [%]
24 | c1cnn(CCCO[C@@H]2CN(C3CCOCC3)[C@@H]3CCCO[C@@H]32)c1 | 4.39
25 | O=C(c1ccno1)N1CCN2C(=O)N(Cc3ccc(F)cc3)C[C@H]2C1 | -8.27
26 | O=S(=O)(Nc1ccc(Oc2ccc3c(c2)OCO3)cc1)N1CCCCC1 | 23
27 | CCS(=O)(=O)N[C@H]1CN(CC(C)(C)N2CCOCC2)C[C@@H]1C1CC1 | -18.9
28 | O=C(c1ccoc1)N(Cc1ccccn1)C1CC1 | -14.2
29 | CC(C)(C)c1cc(=O)[nH]c(C2(N)CCCC2)n1 | 14.1
30 | CCn1ncc(CN(C)C(=O)c2cc(C(F)(F)F)n(C)n2)c1C | -17.2
31 | CCOC[C@@H]1CC[C@H]2[C@H](CCN2S(=O)(=O)c2ccc(F)cc2)O1 | -6.92
32 | Cc1nc(O)cc(CCNC(=O)c2ccc(CN3CCCCC3)cc2)n1 | 0.488
33 | Cc1nccn1-c1ccc(CN2CC3C[C@@H](O)CN3C[C@@H]2C)cc1 (stereo partly specified) | -7.07
34 | CN(C)Cc1cn(CC2CCCN(c3nccc4occc34)C2)nn1 (stereo unspecified) | -14.2
35 | O=C(c1cc(Cl)ccc1F)N1CCCC1Cn1cccn1 (stereo unspecified) | 22.7
36 | Cc1ccc(NC(=O)[C@@H]2C[C@H](C(=O)O)CN(Cc3sccc3C)C2)cn1 | 18.3
37 | CC(C)CN1CC[C@@H]2[C@@H]1CCN2S(=O)(=O)c1cn(C)cn1 | -10.9
38 | COc1ccc(CNCC2CC2)cc1F | -7.42
39 | CCCNC(=O)c1cn(C(C)(C)C)c2ncccc12 | -1.86
40 | CCOc1cc(=O)n2c(c1C(=O)OCc1ccc(C)cc1)CCCC2 | 24.4
41 | COCCN1CCN(CC(=O)NC2(C#N)CCCC2)CC1 | -8.93
42 | NC(=O)C1CCN(C(=O)c2ccn(-c3cccc(Cl)c3)n2)C1 (stereo unspecified) | -17.8
43 | O=C(Nc1cc(F)ccc1OCC1CCCO1)c1ccoc1 (stereo unspecified) | -2.66
44 | CC1(C)Oc2ccc(S(=O)(=O)NCCCn3ccnc3)cc2NC1=O | 28.6
45 | O=C1CCCN1CCCC(=O)N1CCCC(Cc2cccnc2)C1 (stereo unspecified) | -4.43
46 | CS(=O)(=O)c1cn[nH]c1C1CCCCN1C(=O)c1cncs1 (stereo unspecified) | -6.78

Row | Structure (SMILES) | cytotoxicity at 70.5 h [%]
47 | COc1cccc(CC2CCCN2CC(N)=O)c1 (stereo unspecified) | -8.71
48 | CC(=O)N[C@H](C)c1c(-c2ccc(Cl)cc2)noc1C(=O)O | -6.07
49 | CN(C)CCOCC1CN(C(=O)c2ccccn2)Cc2ccnn2C1 (stereo unspecified) | 6.38
50 | CN(Cc1ccco1)C(=O)Nc1cc(C(F)(F)F)c[nH]c1=O | -14.9
51 | c1nc(C2CCCCO2)ncc1CN1CCOCC1 (stereo unspecified) | -4.04
52 | Cc1ccc2c(c1)C(N(C)C)CC21CCN(CCO)CC1 (stereo unspecified) | -0.704
53 | CN(C)CCOCc1cncc2c1CCN(C(=O)C1CCOCC1)C2 | -6.54
54 | Cc1ccsc1C(CNC(=O)c1cc(=O)[nH]c(=O)[nH]1)N(C)C (stereo unspecified) | 17.7
55 | CNC(=O)c1cccc(CCNC(=O)N2CCc3ccccc3C2)c1 | -1.68
56 | COc1cc(CNC(=O)c2c(C)noc2C(C)C)ccn1 | -2.32
57 | CS(=O)(=O)N[C@@H]1CN(Cc2ccco2)C[C@@H]2CCCO[C@@H]21 | -6.79
58 | O=C(CNc1nc(C2CC2)ns1)N1CCc2sccc2C1 | -10.8
59 | Cc1cc(O)c(OCC(=O)/N=c2/[nH]c3c(s2)CCC3)cn1 | -14.7
60 | OC1CCN(CCNc2ncc3c(n2)CCN3c2ccccc2)CC1 | -7.98
61 | CS(=O)(=O)N1C[C@@H]2COC[C@]2(CN2CCOCC2)C1 | -8.04
62 | Cc1nn(C)c2ncc(NC(=O)N(C)Cc3cc(Cl)cn3C)cc12 | -4.9
63 | CCCNC(=O)c1cnc2n1CCCC2 | -9.22
64 | CC(C)SCC(=O)N1Cc2cnc(-c3ccccc3)nc2C1 | -7.54
65 | CC(CNC(=O)N1CCN(c2cnccn2)CC1)Cc1cccs1 (stereo unspecified) | -4.18
66 | COc1cccc(C2CCCN2C(=O)CC2=CSC3=NCCCN23)c1 (stereo unspecified) | -12
67 | Cn1cnc(S(=O)(=O)N2CCCC2c2ccnc3nccn23)c1 (stereo unspecified) | 0.418
68 | N#Cc1cccnc1NCc1cccnc1N1CCCCC1 | 4.49
69 | O=S(=O)(CCCN1CCc2c(ncn2C2CC2)C1)c1ccccc1 | 1.18

Row | Structure (SMILES) | cytotoxicity at 70.5 h [%]
70 | COCCNC(=O)c1ccc(NCc2csc(C)n2)cc1Cl | -2.04
71 | CCOCC(=O)N1CCC2(CC1)CC(c1ccccc1)CO2 (stereo unspecified) | -2.96
72 | CC(C)N1CCC(Cc2cc(-c3ccccc3C(=O)O)ncn2)CC1 | 16.5
73 | COc1c(Cl)cc(C(=O)NCCNc2ncccn2)cc1Cl | 20.5
74 | COC1CCN(C(=O)Nc2ccccc2)CC(=O)N(C)c2ccccc21 (stereo unspecified) | -6.71
75 | CCc1noc(CN2CCN(c3nccs3)CC2)n1 | 10.7
76 | CN(CC(=O)NC1(C)CCS(=O)(=O)C1)Cc1ccc(F)c(F)c1 (stereo unspecified) | 3.42
77 | CN(C)Cc1cc(CC2(NCc3ccccc3Cl)COC2)no1 | -2.7
78 | O=C(N1CCCO1)[C@@]12CCO[C@@H]1CCN(Cc1ccsc1)C2 | -6.2
79 | O=S(=O)(c1ccc(C(F)(F)F)cc1)N1CCC(OCc2ccccn2)C1 (stereo unspecified) | 1.24
80 | Cc1nc(N2CCC3(CCCN(CCO)C3=O)C2)c2sccc2n1 (stereo unspecified) | -7.31
81 | Cc1cc(C)c(CNC(=O)NCc2nnc3n2CCCC3)c(=O)[nH]1 | -13.4
82 | CCc1ccc2c(c1)C(CCNC(=O)Cc1ccc(F)cc1)C(=O)N2 (stereo unspecified) | 11.8
83 | Cn1ccc(C(=O)N2C[C@@H]3CN(CC4CC4)CCO[C@@H]3C2)n1 | 11.6
84 | CC(C)C1CN(C(=O)c2ccn(C)c(=O)c2)c2ccccc2N1 (stereo unspecified) | -0.488
85 | CN(C1CCCC1)C(C)(C)C(=O)NCCS(C)(=O)=O | 2.52
86 | COc1ccc(F)c(F)c1CN1CC(=O)N(c2ccccc2C)CC1C (stereo unspecified) | -11.4
87 | Cc1noc(C)c1CN1CCCC(c2noc(C3CC3)n2)C1 (stereo unspecified) | -7.9
88 | COc1ncc(C2(O)CCN(Cc3ccccc3O)CC2)c(OC)n1 | 7.32
89 | O=C(c1ccoc1)N1C[C@@H]2OCCN(c3ncccn3)[C@@H]2C1 | 1.23
90 | CCn1nc(C)c2ccn(CC(=O)NC3CCCC3)c(=O)c21 | -1.39
91 | O=C1N(C2CCOCC2)CCCC12CCN(c1ncccc1Cl)C2 (stereo unspecified) | -14.5
92 | Cc1nc(-c2ccccc2C(=O)O)cc(C2CCN(C(C)C)C2)n1 (stereo unspecified) | 10.7

Row | Structure (SMILES) | cytotoxicity at 70.5 h [%]
93 | O=C(N1CCCC1)N1Cc2nccn2CC(Cn2ncccc2=O)C1 (stereo unspecified) | -0.168
94 | Cc1cnn(CC2CCCN2C(=O)CCc2c(C)nc(C)[nH]c2=O)c1 (stereo unspecified) | -10.8
95 | COCC1CC2(CCN(Cc3cnn(C)c3)CC2)CN1c1ncccn1 (stereo unspecified) | -10.8
96 | O=C(CN1CCSC(c2ccccc2)C1)NCc1ccccn1 (stereo unspecified) | -5.23
97 | CC(=O)N1Cc2ccccc2CC1C(=O)Nc1ccc(C)cn1 (stereo unspecified) | -15.7
98 | CC[C@H]1CN2CC[C@H]1C[C@@H]2CNCc1ccc2c(c1)OCO2 | -5.69
99 | CC(NC(=O)c1cccs1)C(=O)NS(=O)(=O)c1ccc(C#N)cc1 (stereo unspecified) | -5.58
100 | CCCn1nnnc1COc1cc(OC)ccc1C(=O)OC | -7.14
101 | Cc1cnn(C2CCCN(C(=O)c3ccnc(-n4ccnc4)c3)C2)c1 (stereo unspecified) | -0.996
102 | Cc1ccc(S(=O)(=O)NC(CO)CC(C)C)cc1N(C)C (stereo unspecified) | -3.97
103 | C[C@@]1(O)CCN(C2CCOCC2)C[C@H]1n1ccc(=O)[nH]c1=O | -3.9
104 | COc1cccc(CNc2ccc(F)c(Cl)c2)c1O | -4.8
105 | Cc1ccc(N2CC[C@@H]3[C@@H]2CCN3C(=O)c2cscn2)nn1 | -4.17
106 | CN1CCCC1c1cccc(Cc2ccccc2F)n1 (stereo unspecified) | 0.232
107 | CC(C)Oc1cccc(C(=O)C2CCCN(C(=O)c3ccccn3)C2)c1 (stereo unspecified) | -8.75
108 | CC(=O)c1ccc(-n2c(C)cn(CCS(C)(=O)=O)c2=O)cc1 | -11.2
109 | CS(=O)(=O)NC[C@@H]1OC[C@H]2CN(C(=O)c3cnccn3)CC[C@H]21 | -1.54
110 | CCC(C)N(Cc1cccnc1)C(=O)c1ncccc1O (stereo unspecified) | -8.41
111 | CCNC(=O)NC(=O)CNC(C)(CC)c1nccs1 (stereo unspecified) | -1.38
